In patent US20240050449A1, “Use of Acetyltanshinone IIA in Preparation of Medicament for Treating Lung Cancer and Medicament for Treating Lung Cancer” (UNIVERSITY OF MACAU, priority 2022, published 2024):
“Also recorded” adds a separate entry of the source.

Assays:
[1] = system: EGFR; experiment: Western blot, EGFR protein levels in drug-resistant NSCLC cells; format: cell-based
Method: Cells were washed once with PBS and frozen in RIPA lysis buffer containing protease and phosphatase inhibitors (Sigma-Aldrich) for 30 min. After sonication and centrifugation, the total protein concentration was determined by protein assay using Bio-Rad concentrated dye reagent (Bio-Rad). Equal amounts of protein ([…]) from each sample were separated by SDS-PAGE and electrotransferred to nitrocellulose membranes (GE Healthcare). Detection was performed on the membrane with a 1:1000 dilution of specific primary antibody followed by incubation with a 1:2000 dilution of the HRP conjugated secondary antibody. Finally, immunoreactivity is detected with a chemiluminescent substrate (Clarity Western ECL substrate; Bio-Rad). […] Aurora A (#ab13824) and PLK1 (#ab189139) antibodies were from Abcam.

[2] = system: A549 cells; experiment: Transwell Matrigel invasion assay; format: cell-based
Method: Cell migration and invasion assays were performed in a transwell chamber (Corning, #3422) with a pore size of 8 μm. Cells were treated with different concentrations of ATA and Erlotinib for 48 h, then harvested and resuspended in a serum-free medium. Cells (1×10^4) were added to the upper side of the transwell chamber and fresh medium containing 10% FBS was added to the lower side. Cells were allowed to migrate from the upper side to the lower side of the chamber at 37° C. for 24 h. Membranes from the cell chamber were fixed with 4% paraformaldehyde for 20 min. The cells remaining on the upper side of the membrane were gently removed with a cotton swab and stained with 1% crystal violet for 20 min to stain the cells migrating to the other side of the transwell chamber. The membrane was then cut and fixed on a glass slide. The migrated cells on each slide were imaged with a Leica M165-FC microscope. For the transwell invasion assay, a Matrigel solution (Corning, #356230) was diluted to one-thirtieth with serum-free medium and applied to the upper side of the precoated chamber for 2 h, after the Matrigel had solidified, the cells were added to the upper side of the transwell chamber. The following procedure is identical to the migration assay. Migrated and invaded cells were quantified using ImageJ software.

[3] = system: H1650 cells; experiment: Spheroid formation experiment, H1650 cells
[4] = system: A549 and H1650 cells; experiment: Cell cycle analysis (PI staining, flow cytometer); format: cell-based; conditions: 1 or 2 μM, 48 h
Method: Cell cycle analysis was performed using standard flow cytometer protocols. Briefly, after ATA treatment, cells were harvested, washed with 1×PBS, and then fixed with 70% pre-chilled ethanol at 4° C. for 30 min. Fixed cells were washed twice with 1×PBS, resuspended in 0.5 mL of 1×PBS containing 50 μg/mL propidium iodide (PI) and 100 μg/mL RNase A (ribonuclease A) for 30 min at 37° C. in the dark. The cell cycle was then analyzed on a BD Accuri C6 flow cytometer (BD Biosciences, CA). Data from the flow cytometer were analyzed using FlowJo software (Tree Star).

[5] = system: H358 cells; experiment: MTT cell viability assay, H358 cells; format: cell-based
Method: (§1) Cells were seeded at a density of 3×10^3 per well in 96-well plates, allowed to attach overnight, and treated with various concentrations of agent. After 72 h of treatment, 10 μL of MTT solution (5 mg/mL) was added to each well and cultured in the plate for 4 h. The crystallized formazan was dissolved in 100 μL of 10% (w/v) SDS and 0.01 mol/L HCl solution for 24 h, and then the value was read by spectrophotometry at 595 nm using a microplate reader.

[6] = system: A549 cells; experiment: MTT cell viability assay, A549 cells; format: cell-based
Method: as §1

[7] = system: drug-resistant NSCLC cells (A549, H358, H1975, H1650); experiment: MTT assay, summary over all four cell lines; format: cell-based
Method: as §1

[8] = system: protein levels in A549-derived xenograft tumor tissue; experiment: Western blot of A549-derived xenograft tumor tissue; format: in vivo, nude mice; conditions: after ATA treatment, 25 mg/kg
Method: Cells were washed once with PBS and frozen in RIPA lysis buffer containing protease and phosphatase inhibitors (Sigma-Aldrich) for 30 min. After sonication and centrifugation, the total protein concentration was determined by protein assay using Bio-Rad concentrated dye reagent (Bio-Rad). Equal amounts of protein (25-50 mg) from each sample were separated by SDS-PAGE and electrotransferred to nitrocellulose membranes (GE Healthcare). Detection was performed on the membrane with a 1:1000 dilution of specific primary antibody followed by incubation with a 1:2000 dilution of the HRP conjugated secondary antibody. Finally, immunoreactivity is detected with a chemiluminescent substrate (Clarity Western ECL substrate; Bio-Rad). EGFR (#4267S), MET (#8198S), p-Akt (#9271L), akt (#9272S), p-mTOR (#5536S), mTOR (#2983S), p-p70S6K (#9234S), p70S6K (#2708S), p-S6RP (#4857S), S6RP (#2217S), p-4E-BP1 (#9455S) antibodies. 4E-BP1 (#9644S), p53 (#2527S), p21 waf1/Cip1 (#2947S), survivin (#2808S), cyclin B1 (#12231S), cyclin D3 (#2936S) and GAPDH (#2118S) were purchased from Cell Signaling Technology. Aurora A (#ab13824) and PLK1 (#ab189139) antibodies were from Abcam.
EGFR, MET, p-p70S6K, p70S6K, p-S6RP, S6RP, p21, AURKA, PLK1, and survivin protein levels were detected by Western blot analysis. Immunoblot samples were from two independent tumors per group.

[9] = Body weight, deaths and toxicity in the xenograft study; conditions: 25 mg/kg intraperitoneally every 3 days for 31 days
Method: Cell line xenograft experiments were performed in 6-week-old female nude mice, 4×10^6 A549 cells were mixed 1:1 with matrigel-basement membrane matrix (Corning) and injected subcutaneously into nude mice. Tumors were allowed to grow to around […] and mice were randomly selected to receive treatment with ATA (25 mg/kg) or Erlotinib (25 mg/kg) intraperitoneally every 3 days for 31 days. ATA was formulated with 25% ethanol, 60% PEG300 (Sigma-Aldrich), and 15% Tween 80 (Sigma-Aldrich). Erlotinib was formulated in 5% DMSO, 30% PEG300, 5% Tween 80 and 60% H2O. Mouse body weight and tumor volume were measured every 3 days by a scale and caliper. Tumor volume (mm^3) was calculated using the formula. π/6×length (mm)×[width (mm)]^2. At least 6 mice in the control and treatment groups were evaluated during the study. All mice were sacrificed after 31 days of drug treatment, tumors were collected, and tumor weights were recorded. All animal studies were conducted in accordance with the requirements of the Animal Research Ethics Committee of Macao University and in compliance with all relevant ethical requirements.
To determine if ATA could also produce the same effect in vivo, this example injected A549 cells subcutaneously into nude mice to form tumor xenografts. Mice were randomly assigned to three groups. When the size of each tumor increased to a volume of approximately 100 mm^3, mice were injected intraperitoneally with vehicle control, ATA (25 mg/kg), or Erlotinib (25 mg/kg) every 3 days for 31 days. The tumor size and body weight of each mouse were measured every 3 days until the end of the animal experiment on day 31.

[10] = system: A549 cells; experiment: Colony formation (cloning experiment), A549 cells; format: cell-based; conditions: 0.125 μM, 10 days
Method: (§2) Cells were seeded at a density of 1×10^3 per well in 6-well plates and cultured for 24 h. The cells were treated with medicament or DMSO for 10 days, after which the cells were washed once with 1×PBS, fixed with 4% paraformaldehyde for 20 min, and stained with 0.1% crystal violet for 15 min. The stained cells in each well were imaged and the number of colonies in each well was quantified using ImageJ software.

[11] = system: H1975 cells; experiment: MTT cell viability assay, H1975 cells; format: cell-based
Method: as §1

[12] = system: all four drug-resistant cell lines (A549, H358, H1975, H1650); experiment: Colony formation, all four drug-resistant cell lines; format: cell-based; conditions: 1 μM, 10 days
Method: as §2

CC(=O)Oc1c(OC(C)=O)c2c(C)coc2c2ccc3c(c12)CCCC3(C)C [ATA, acetyltanshinone IIA]
decrease of EGFR protein levels ([1]; A549 cells, 2 μM, 72 or 96 h): ≤ 90%
reduction of EGFR protein levels ([1]; H358, H1975 and H1650 cells, 1 or 2 μM, 48 h): 60-70%
effect on cell invasion ([2]; 0.5 μM): significant inhibitory effect
reduction of invasion ability ([2]; 1 μM): 88%
spheroid growth / sphere size ([3]; 2 μM, 0 to 8 days): completely inhibited
spheroid formation ([3]; both 1 and 2 μM): strongly inhibited
proportion of cells in the G1 phase [4]: increased
proportion of cells in the S phase [4]: decreased
IC50 ratio of Erlotinib/ATA [5]: 13.7
IC50 ([5]; MTT, 72 h): 1570 ± 100 nM
IC50 ratio of Erlotinib/ATA [6]: 10.7
growth inhibition compared with other agents ([6]; ATA 2 μM, 72 h, MTT): significantly higher than all three inhibitors; also recorded: greater growth inhibition than combination therapy with Erlotinib and MLN8237
IC50 ([6]; MTT, 72 h): 1830 ± 210 nM
IC50 ([7]; A549, H358, H1975, H1650, MTT, 72 h, read-out: IC50 values, range over the four cell lines): 1300 to 1800 nM
IC50 of ATA lower than that of Erlotinib ([7]; four cell lines): 6-17 fold
increase of p21 protein levels in xenograft tumor tissue [8]: more than 2 fold
protein levels of EGFR, MET, p-p70S6K, p70S6K, p-S6RP, AURKA, PLK1 and survivin in xenograft tumor tissue [8]: greatly reduced
deaths during the treatment period [9]: no mice died
toxicity in nude mice [9]: no significant toxicity
weight of nude mice compared between groups [9]: no difference
reduction of colony-forming capacity [10]: 42%
IC50 ratio of Erlotinib/ATA [11]: 6
IC50 ([11]; MTT, 72 h): 1760 ± 20 nM
inhibition of colony formation compared with Erlotinib and Osimertinib [12]: much more effectively than Erlotinib and Osimertinib
